A value given as a limit tells only on which side of the number the result lay.

The results in this text go back to ChEMBL document CHEMBL6078622, “Enhancing outer membrane permeability of tetracycline antibiotics in P. aeruginosa using TOB-CIP conjugates” (RSC Med Chem, 2024).

Common to all, as to assay type: functional
In assay [1] the test system is Pseudomonas aeruginosa. The assay is described as follows: Synergistic antibacterial activity against Pseudomonas aeruginosa PA262 in presence of tigecycline by checkerboard assay.
For assay [2], the system named is Pseudomonas aeruginosa. The assay is described as follows: Synergistic antibacterial activity against Pseudomonas aeruginosa PA264 assessed as fractional inhibitory concentration index in presence of minocycline by checkerboard assay.
Assay [3] has as its system Pseudomonas aeruginosa. The assay is described as follows: Synergistic antibacterial activity against Pseudomonas aeruginosa PA259 assessed as fold change in eravacycline MIC by CLSI based broth-microdilution method relative to eravacycline alone. (Dilution methods test growth across graded concentrations, often in twofold steps.)
Assay [4] deals with Pseudomonas aeruginosa. The assay is described as follows: Synergistic antibacterial activity against Pseudomonas aeruginosa PA200 assessed as fold change in doxycycline MIC by CLSI based broth-microdilution method relative to doxycycline alone.
Assay [5] has as its system Pseudomonas aeruginosa. The assay is described as follows: Antibacterial activity against Pseudomonas aeruginosa PA095 assessed as doxycycline MIC by CLSI based broth-microdilution method.
Assay [6] concerns Pseudomonas aeruginosa. The assay is described as follows: Synergistic antibacterial activity against Pseudomonas aeruginosa PA264 in presence of doxycycline by checkerboard assay.
Assay [7] has as its system Pseudomonas aeruginosa. The assay is described as follows: Synergistic antibacterial activity against Pseudomonas aeruginosa PA100036 assessed as fractional inhibitory concentration index in presence of doxycycline by checkerboard assay.
The test system of assay [8] is Pseudomonas aeruginosa. The assay is described as follows: Synergistic antibacterial activity against Pseudomonas aeruginosa PA264 in presence of minocycline by checkerboard assay.
The subject of assay [9] is Pseudomonas aeruginosa. Nature of the assay: Antibacterial activity against Pseudomonas aeruginosa PA262 assessed as inhibition of visible bacterial growth by CLSI based broth-microdilution method.
Assay [10] has as its system Pseudomonas aeruginosa. Nature of the assay: Antibacterial activity against Pseudomonas aeruginosa PA095 assessed as inhibition of visible bacterial growth by CLSI based broth-microdilution method.
Assay [11] relates to Pseudomonas aeruginosa. Nature of the assay: Antibacterial activity against Pseudomonas aeruginosa PA114228 assessed as doxycycline MIC by CLSI based broth-microdilution method.
The subject of assay [12] is Pseudomonas aeruginosa. The assay is described as follows: Antibacterial activity against Pseudomonas aeruginosa PA259 assessed as doxycycline MIC by CLSI based broth-microdilution method.
Assay [13] has as its system Pseudomonas aeruginosa. The assay is described as follows: Antibacterial activity against Pseudomonas aeruginosa PA259 assessed as minocycline MIC by CLSI based broth-microdilution method.
Assay [14] concerns Pseudomonas aeruginosa. The assay is described as follows: Synergistic antibacterial activity against Pseudomonas aeruginosa PA095 assessed as fractional inhibitory concentration index in presence of tigecycline by checkerboard assay.
Assay [15] concerns Pseudomonas aeruginosa. The assay is described as follows: Synergistic antibacterial activity against Pseudomonas aeruginosa PA262 in presence of minocycline by checkerboard assay.
Assay [16] concerns Pseudomonas aeruginosa. Nature of the assay: Synergistic antibacterial activity against Pseudomonas aeruginosa PA200 assessed as fold change in minocycline MIC by CLSI based broth-microdilution method relative to minocycline alone.
In assay [17] the test system is Pseudomonas aeruginosa. Nature of the assay: Synergistic antibacterial activity against Pseudomonas aeruginosa PA259 in presence of eravacycline by checkerboard assay.
The test system of assay [18] is Pseudomonas aeruginosa. Nature of the assay: Synergistic antibacterial activity against Pseudomonas aeruginosa PA200 assessed as fractional inhibitory concentration index in presence of eravacycline by checkerboard assay.

One may read the MIC as the lowest concentration that inhibits growth of the organism. For `Cl.Cl.Cl.Cl.Cl.Cl.NC[C@H]1O[C@H](O[C@H]2[C@H](OCCCCCCCCCCCCNC(=O)c3cn(C4CC4)c4cc(N5CCNCC5)c(F)cc4c3=O)[C@@H](O[C@H]3O[C@H](CO)[C@@H](O)[C@H](N)[C@H]3O)[C@H](N)C[C@@H]2N)[C@H](N)C[C@@H]1O`, the MIC in assay [1] is 8 µg/mL; in assay [5], 4 µg/mL; in assay [6], 8 µg/mL; in [8] it was 8 µg/mL; in assay [9], above 128 µg/mL; in [10], 8 µg/mL. The MIC amounted to 32 µg/mL in [11]; 0.5 µg/mL in [12]; 0.25 µg/mL in [13]; 8 µg/mL in assay [15]; 8 µg/mL in assay [17]. Besides, the “fractional inhibitory concentration index (FICI)” value is 0.031 in assay [2], 0.004 in [7], 0.265 in assay [14] and 0.156 in assay [18]. Also, the “fold change (FC)” value in [3] was 512; in [4] it was 64; in [16], 64.
